In US6642201B1, “Use of a dipeptide for stimulating repair processes” (priority 1998, dated 2003):
Marks after values point to notes of the source that are not given here. Where a SMILES comes first, the peptide text is derived from it.

What was measured:
[1] = system: inflammation of salivary glands and sialolithic disease; assay: Clinical treatment of inflammation of salivary glands and sialolithic disease; type: in vivo, patients; conditions: 1 μkg i.m. daily for 5 days
Description: 45 patients were being observed. Of these, 27 people had inflammations of the salivary glands, 4 of whom had parotitis. 18 people suffered sialolithic disease of the submandibular gland. The average age of the patients was 35-40. All the patients with the sialolithic disease had the stones extracted. 30 patients (15 of them had inflammation of the salivary gland and the other 15 had sialolithic disease) underwent daily intramuscular injections of L-Lys-L-Glu dipeptide 1 μkg. for 5 days.
The patients of the control group underwent standard treatment: antibacterial, desensitization therapy, iodine-dimexid dressings, physical therapy (ultrasonics, 5-10% potassium iodide electrotherapy on the gland area), local treatment (washing the glands with the solution of antiseptics and antibiotics).

white outbred mice = assay: Sub-acute toxicity, daily intramuscular administration for 90 days; type: in vivo; conditions: i.m. daily 0.3, 1, 3 mg/kg for 90 days; doses exceeding therapeutic 100-1000 times
Method: The study of sub-acute toxicity of L-Lys-L-Glu dipeptide is carried out on 60 white outbred mice with body weight […]. The animals of experimental groups were exposed daily to a single administration of the drug intramuscularly for 90 days in doses 1 mg/kg, 0.3 mg/kg, 3 mg/kg in 0.5 ml of sodium chloride solution. The animals of control groups were administered with sodium chloride solution in the same quantity.
During the whole period of Investigation the animals were under daily control. There was monitored animal behavior, as well as chow and water consumption, condition of hairy and mucous surfaces. The animals were weighed weekly. Morphological composition and properties of peripheral blood were studied prior to and an the 30th, 60th, and 90th day of drug administration. Biochemical and coagulologic indices of the blood were studied upon experiment completion.

regenerating liver cells = assay: Compensatory regeneration of the liver after partial hepatectomy; type: in vivo, white outbred male rats
Method: The research has been conducted on 26 white outbred male rats weighing 150-200 grams. The animals were divided into thee following groups:
3 group—rats which had undergone the operation and were subsequently (2 and 24 hours after the operation) administered two subcutaneous injections of L-Lys-L-Glu dipeptide (0,1 μkg per rat).
At the same time, the animals of the first and second groups were made injections of the same volume of the […]. The extracted liver was preserved formalin.
The rats, which had been operated on, were killed by means of ether 32 and 96 hours after the operation. The rats from the control group were killed too, simultaneously. Their livers were preserved in formalin. After staining the preparations with hematoxilin-eosin, the mitotic index in the liver cells was defined, as well as the quantity of polyploid cells in the S-phase cell cycle (the quantity of dividing cells).

[2] = system: purulent incised crushed wounds of the femural soft tissues; assay: Healing of purulent incised crushed wounds of the soft tissues; type: in vivo, shinshilla rabbits; design: key: 1 point - absent; 2 points - single (traces); 3 points - few; 4 points - diffuse (moderately); 5 points - many-;; 6 points - very many; conditions: rabbits, 1 μkg i.m. daily 5 days
Description: The efficacy of L-Lys-L-Glu dipeptide was estimated on the model of purulent incised crushed wounds of the femural soft tissues in shinshilla rabbits of both sexes with body weight 2-3 kg. Therefore, the rabbits underwent shaving in the area of femural soft tissues with subsequent incision 5 cm long and 2 sm deep. Soft tissues (muscles, subcutaneous fat) were crushed with Kocher 's forcepts and infected with the pathogenic mixture Staphylococcus aureus, strain 186. Afterwards, the wound was sutured. In 72 hours the sutures were lifted; and the wound was treated with 3% solution of hydrogen peroxide.
The animals of experimental group were injected intramuscularly every day for five days with dipeptide L-Lys-L-Glu in a single dose 1 μkg per injection. Control rabbits were injected with sodium chloride solution according to the same scheme. In the process of treatment the wounds were treated with antiseptic remedies for external use.
The estimation of L-Lys-L-Glu dipeptide efficacy in the dynamics of the inflammatory process regression was based on the terms of crust rejection and wound clearance from the pyo-necrotic mass, and appearance of the granular tissue in the wound and beginning of edge epithelization. […] The activity of tissue enzymes was also estimated (5,6,7).

rats = assay: Chronic toxicity, daily intramuscular administration for 6 months; type: in vivo; conditions: i.m. daily 0.3, 1, 3 mg/kg for 6 months
Method: Chronic toxicity of L-Lys-L-Glu dipeptide obtained by the claimed method was studied during its longitudinal administration to rats with body weight […]. The animals of experimental groups were exposed daily to single intramuscular administration of the substance in doses 1 mg/kg, 0.3 mg/kg, 3 mg/kg in 0.5 ml of sodium chloride solution for 6 months. There was analyzed animal behavior, as well as chow and water consumption, condition of hairy and of mucous surfaces. The animals were weighed daily during the first 3 months of the experiment and then once a month. In 3 months after the onset of administration and upon completion of the experiment hematological and biochemical examinations functions of cardiovascular system, liver, pancreas. kidney, and adrenal gland were conducted and estimated. Upon the termination of the drug administration some animals were exposed to pathomorphological examination with the purpose of studying the state of various departments of the brain and spinal marrow, heart, aorta, lungs, liver, organs of endocrine and immune systems.

[3] = patients with sialolithic disease
[4] = 32 hours After partial hepatectomy, 0,1 μkg per rat s.c. at 2 and 24 hours
[5] = 32 hours group, Before (pre-operation index)
[6] = 96 hours After partial hepatectomy, 0,1 μkg per rat s.c. at 2 and 24 hours
[7] = 96 hours group, Before (pre-operation index)

## NCCCC[C@H](N)C(=O)N[C@@H](CCC(=O)O)C(=O)O [L-Lys-L-Glu dipeptide, L-lysil-L-glutamic acid] (H-Lys-Glu-OH)
[1]; patients with inflammation of the salivary gland
  pains in the gland and discharge of pus: on the fourth-fifth day after the treatment, stopped having pains in the gland and the discharge of pus from the gland ducts
[1]; [3]
  discharge of pus from the gland ducts: stopped having the discharge of pus from the gland ducts
  swelling and infiltration of soft tissues and mucous membrane of the mouth cavity: resolved on the third fourth day after the operation
[1]; patients
  period of treatment: shortened the period of treatment
White outbred mice
  side effects, sub-acute toxicity: absence of side effects
Regenerating liver cells; [4]
  % of cells in the phase of DNA synthesis: 3.882 ± 0.8391″ %
  Mitotic index: 2.314 ± 0.4611 %
  Total number of dividing cells: 6.196 ± 1.279 %
Regenerating liver cells; 32 hours after partial hepatectomy
  increasing number of mitoses, DNA-synthesizing cells and overall amount of dividing cells: does become trustworthy
Regenerating liver cells; [5]
  % of cells in the phase of DNA synthesis: 0.870 ± 0.100%
  Total number of dividing cells: 1.320 ± 0.159%
Regenerating liver cells; 32 hours group, Before (pre-operation index), % of the total number of liver cells
  Mitotic index: 0.450 ± 0.067%
Regenerating liver cells; [6]
  % of cells in the phase of DNA synthesis: 4.664 ± 1.315 %
  Mitotic index: 4.846 ± 0.334*& %
  Total number of dividing cells: 9.510 ± 1.609 %
Regenerating liver cells; 96 hours after hepatectomy
  number of cells in the S-phase compared to the second (control) group: did not differ reliably
  number of dividing cells bigger than with rats injected with the sodium hydrochloride: 75%
  number of mitoses compared to rats injected with the sodium hydrochloride: twice as big
Regenerating liver cells; [7]
  % of cells in the phase of DNA synthesis: 0.982 ± 0.141%
  Mitotic index: 0.294 ± 0.084%
[2]; day 6
  Acid phosphotase in histiocytes: 5*
[2]; day 14
  Alcaline phosphotase in vessels: 5
[2]; day 21
  Acid phosphotase in histiocytes: 5
  Alcaline phosphotase in leukocytes: 5
  Alcaline phosphotase in vessels: 5*
[2]; day 28
  Acid phosphotase in histiocytes: 5*
[2]; day 40
  Acid phosphotase in histiocytes: 5*
  Alcaline phosphotase in leukocytes: 5
rats; doses exceeding therapeutic 100-1000 times
  side effects, chronic toxicity: absence of side effects
rats; rats
  pathological changes (general state, blood indices, intrinsic organs, cardio-vascular, respiratory, liver and kidney functions): no pathological changes
